Here are results for 8 molecules from US12528767B2, “HDAC6 inhibitors and uses thereof” (Eikonizo Therapeutics, Inc., priority 2019, dated 2026).

The target in one experiment is T1, Full length Human HDAC10 (Homo sapiens, UniProt Q969S8).
T1 sequence (Q969S8 1-669): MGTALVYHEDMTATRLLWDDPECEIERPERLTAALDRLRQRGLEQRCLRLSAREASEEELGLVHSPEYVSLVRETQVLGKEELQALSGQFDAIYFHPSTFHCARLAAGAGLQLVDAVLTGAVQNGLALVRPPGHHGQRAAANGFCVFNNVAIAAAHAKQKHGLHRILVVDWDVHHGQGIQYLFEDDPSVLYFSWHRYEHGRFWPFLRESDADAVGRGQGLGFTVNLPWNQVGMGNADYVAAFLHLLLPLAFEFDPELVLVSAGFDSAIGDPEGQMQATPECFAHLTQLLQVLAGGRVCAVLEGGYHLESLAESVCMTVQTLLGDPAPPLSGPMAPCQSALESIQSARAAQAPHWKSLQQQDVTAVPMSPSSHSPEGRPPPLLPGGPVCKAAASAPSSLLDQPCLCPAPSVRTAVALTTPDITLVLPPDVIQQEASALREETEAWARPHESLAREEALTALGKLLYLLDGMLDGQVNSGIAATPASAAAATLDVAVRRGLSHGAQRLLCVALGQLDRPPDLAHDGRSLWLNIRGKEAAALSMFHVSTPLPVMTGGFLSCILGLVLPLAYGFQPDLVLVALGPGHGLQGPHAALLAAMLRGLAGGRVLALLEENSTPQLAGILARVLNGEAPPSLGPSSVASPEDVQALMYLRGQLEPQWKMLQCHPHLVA

A further experiment concerns the target T2, Human HDAC7 aa 518-end (Homo sapiens, UniProt Q8WUI4).
T2 sequence (Q8WUI4 518-952 limits assumed): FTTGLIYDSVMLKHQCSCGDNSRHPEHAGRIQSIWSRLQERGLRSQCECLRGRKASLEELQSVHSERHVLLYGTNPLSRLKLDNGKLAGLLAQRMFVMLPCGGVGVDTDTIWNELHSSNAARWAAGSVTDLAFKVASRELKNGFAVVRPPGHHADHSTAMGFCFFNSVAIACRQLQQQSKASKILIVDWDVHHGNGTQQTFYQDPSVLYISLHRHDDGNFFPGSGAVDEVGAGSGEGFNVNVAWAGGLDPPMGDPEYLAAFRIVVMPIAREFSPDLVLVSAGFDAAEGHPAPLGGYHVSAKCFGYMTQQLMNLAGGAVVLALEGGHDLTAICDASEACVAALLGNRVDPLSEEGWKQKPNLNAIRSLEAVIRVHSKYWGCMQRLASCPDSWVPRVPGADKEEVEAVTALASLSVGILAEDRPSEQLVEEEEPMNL

The target in the next experiment is T3, Full length Human HDAC6 (Homo sapiens, UniProt Q9UBN7).
T3 sequence (Q9UBN7 1-1215): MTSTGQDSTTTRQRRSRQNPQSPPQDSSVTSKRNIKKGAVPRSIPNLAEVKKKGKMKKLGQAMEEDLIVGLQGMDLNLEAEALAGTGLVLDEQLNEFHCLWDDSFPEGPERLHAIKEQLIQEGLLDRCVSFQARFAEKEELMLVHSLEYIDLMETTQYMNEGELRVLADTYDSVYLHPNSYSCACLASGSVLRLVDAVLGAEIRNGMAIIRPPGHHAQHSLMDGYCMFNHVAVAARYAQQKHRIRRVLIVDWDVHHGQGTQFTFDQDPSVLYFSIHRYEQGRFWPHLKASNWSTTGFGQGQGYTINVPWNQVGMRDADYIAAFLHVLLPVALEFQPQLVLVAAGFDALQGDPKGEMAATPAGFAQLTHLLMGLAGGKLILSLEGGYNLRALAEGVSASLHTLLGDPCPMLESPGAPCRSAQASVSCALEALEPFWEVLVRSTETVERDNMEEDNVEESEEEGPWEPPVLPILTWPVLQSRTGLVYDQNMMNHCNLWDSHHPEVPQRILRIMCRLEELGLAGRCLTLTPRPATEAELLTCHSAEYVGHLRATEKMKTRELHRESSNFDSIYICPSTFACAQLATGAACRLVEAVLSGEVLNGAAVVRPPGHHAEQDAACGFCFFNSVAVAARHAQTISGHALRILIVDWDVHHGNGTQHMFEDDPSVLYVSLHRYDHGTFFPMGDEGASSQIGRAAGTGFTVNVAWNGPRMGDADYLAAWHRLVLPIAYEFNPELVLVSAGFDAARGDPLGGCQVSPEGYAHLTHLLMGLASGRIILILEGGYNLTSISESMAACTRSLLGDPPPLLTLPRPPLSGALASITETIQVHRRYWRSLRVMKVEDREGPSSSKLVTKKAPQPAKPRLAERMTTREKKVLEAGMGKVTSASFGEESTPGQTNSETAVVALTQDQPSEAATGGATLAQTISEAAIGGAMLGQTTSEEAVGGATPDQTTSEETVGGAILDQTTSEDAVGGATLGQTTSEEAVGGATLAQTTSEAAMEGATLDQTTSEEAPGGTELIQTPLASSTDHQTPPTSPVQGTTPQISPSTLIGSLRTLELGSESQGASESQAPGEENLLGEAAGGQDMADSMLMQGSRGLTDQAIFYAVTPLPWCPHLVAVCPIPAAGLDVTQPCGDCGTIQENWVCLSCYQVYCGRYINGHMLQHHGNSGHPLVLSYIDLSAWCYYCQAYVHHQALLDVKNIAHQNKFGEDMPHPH
The settings on record: for Selectivity (6 v 8) (fold): ratio of HDAC8 IC50/HDAC6 IC50.

The target in the next experiment is T4, Full length Human HDAC8 (Homo sapiens, UniProt Q9BY41).
T4 sequence (Q9BY41 1-377): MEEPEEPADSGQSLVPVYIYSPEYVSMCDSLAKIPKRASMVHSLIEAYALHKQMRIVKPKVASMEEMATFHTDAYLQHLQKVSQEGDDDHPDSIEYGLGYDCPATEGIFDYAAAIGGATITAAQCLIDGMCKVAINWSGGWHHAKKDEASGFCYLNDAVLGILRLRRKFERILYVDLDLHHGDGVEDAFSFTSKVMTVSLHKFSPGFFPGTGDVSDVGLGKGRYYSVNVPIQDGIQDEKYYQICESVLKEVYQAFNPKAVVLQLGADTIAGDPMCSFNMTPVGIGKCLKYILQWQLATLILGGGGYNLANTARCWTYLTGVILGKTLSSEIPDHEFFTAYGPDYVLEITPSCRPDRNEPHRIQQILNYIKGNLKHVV

[1] abbreviates: read-out: In vitro enzymatic IC50, HDAC Paralog 6, Table 2.
The mark [2] stands for this setting: read-out: In vitro enzymatic IC50, HDAC Paralog 8, Table 2.

As a reminder, the IC50 is the midpoint of a concentration-inhibition curve.

Like-named read-outs stand apart in the source and are kept apart here.

Consider `O=C(NO)c1ccc(CN2C3CCCC2CC3)c(F)c1` [compound 61], for which the half-inhibitory concentration (IC50) against Full length Human HDAC10 was over 100 µM; on Human HDAC7 aa 518-end it was 1 to 10 µM; against Full length Human HDAC6 it was 0.1 to 1 µM; at Full length Human HDAC6 (setting [1]), 0.1 to 1 µM; at Full length Human HDAC8, 1 to 10 µM; at Full length Human HDAC8 (setting [2]), 1 to 10 µM. The “Selectivity (6 v 8) (fold)” value at Full length Human HDAC6 (Table 1, number) is reported as 9.6 fold; at Full length Human HDAC6 (Table 1, range class) it was “II (II: >1-10)”.
Regarding `O=C(NO)c1cc(F)c2c(c1)CCN(CC1COC1)C2` [compound 27], the IC50 against Full length Human HDAC10 was over 100 µM; against Human HDAC7 aa 518-end, 1 to 10 µM; on Full length Human HDAC6 it was 0.001 to 0.1 µM; at Full length Human HDAC6 (setting [1]), 0.001 to 0.1 µM; against Full length Human HDAC8, 10 to 100 µM; on Full length Human HDAC8 (setting [2]), 10 to 100 µM.
Regarding `O=C(NO)c1cc(F)c2c(c1)C[C@@H]1CC3(CCCCC3)CN1C2` (single isomer, unassigned) [compound 136], the IC50 against Full length Human HDAC10 was over 100 µM; against Human HDAC7 aa 518-end, 1 to 10 µM; at Full length Human HDAC6, 0.001 to 0.1 µM; against Full length Human HDAC8, 1 to 10 µM.
With `O=C(NO)c1cc(F)c2c(c1)CC1CCCN1C2` (single isomer, unassigned) [compound 120], the IC50 against Full length Human HDAC10 was over 100 µM; at Human HDAC7 aa 518-end, 1 to 10 µM; on Full length Human HDAC6, 0.001 to 0.1 µM; on Full length Human HDAC6 (setting [1]), 0.001 to 0.1 µM; against Full length Human HDAC8, 1 to 10 µM; at Full length Human HDAC8 (setting [2]) it was 1 to 10 µM.
For the molecule `O=C(NO)c1ccc(CN2C3CCC2COC3)c(F)c1` [compound 59], the IC50 at Full length Human HDAC10 lay in the range of 10 to 100 µM; at Human HDAC7 aa 518-end, 1 to 10 µM; on Full length Human HDAC6, 0.001 to 0.1 µM; at Full length Human HDAC6 (setting [1]) it was 0.001 to 0.1 µM; at Full length Human HDAC8, 0.1 to 1 µM; on Full length Human HDAC8 (setting [2]), 0.1 to 1 µM.
As for `O=C(NO)c1ccc(CN2CCC3(C2)C2CC4CC(C2)CC3C4)c(F)c1` (stereo not shown) [compound 78], the IC50 was over 100 µM at Full length Human HDAC10; 10 to 100 µM at Human HDAC7 aa 518-end; 1 to 10 µM against Full length Human HDAC6; 1 to 10 µM on Full length Human HDAC6 (setting [1]); 0.1 to 1 µM on Full length Human HDAC8; 0.1 to 1 µM on Full length Human HDAC8 (setting [2]). The “Selectivity (6 v 8) (fold)” value is 0.4 fold on Full length Human HDAC6 (Table 1, number) and “I (I: 0.1-1)” at Full length Human HDAC6 (Table 1, range class).
In the case of `O=C(NO)c1cc(F)c2c(c1)CCN(CC1CCCCC1)C2` [compound 19], the 50% inhibitory concentration (IC50) was in the range of 10 to 100 µM at Full length Human HDAC10; 10 to 100 µM at Human HDAC7 aa 518-end; 0.001 to 0.1 µM against Full length Human HDAC6; 0.001 to 0.1 µM on Full length Human HDAC6 (setting [1]); 1 to 10 µM at Full length Human HDAC8; 1 to 10 µM on Full length Human HDAC8 (setting [2]).
For the molecule `O=C(NO)c1cc(F)c(CN2CCC3(CCCCC3)C2)cc1F` [compound 67], the 50% inhibitory concentration (IC50) at Full length Human HDAC10 fell in the range of 10 to 100 µM; at Human HDAC7 aa 518-end, 1 to 10 µM; at Full length Human HDAC6, 0.001 to 0.1 µM; at Full length Human HDAC6 (setting [1]) it was 0.001 to 0.1 µM; against Full length Human HDAC8, 1 to 10 µM; at Full length Human HDAC8 (setting [2]), 1 to 10 µM. Also, the “Selectivity (6 v 8) (fold)” value on Full length Human HDAC6 (Table 1, number) was 20 fold; at Full length Human HDAC6 (Table 1, range class), “III (III: >10-100)”.
